Assay: Solubility in water of synthesized substituted imidazolines
Format: physicochemical

Solubility in water, Yes Yes Yes:
CCCCCCCCCCCC1=NCCN1CCNCCC(=O)O [No. 7, 3-((2-(2-undecyl-4,5-dihydro-1H-imidazol-1-yl)ethyl)amino)propanoic acid]
CCCCCC1=NCCN1CCNCCC(=O)O [No. 5, 3-((2-(2-pentyl-4,5-dihydro-1H-imidazol-1-yl)ethyl)amino)propanoic acid]
CCCCCCCC1=NCCN1CCNCCC(=O)O [No. 6, 3-((2-(2-heptyl-4,5-dihydro-1H-imidazol-1-yl)ethyl)amino)propanoic acid]
